Measured values reported in patent publication US20150315188A1, “COMPOUNDS AND METHODS FOR TREATMENT OF HYPERTENSION” (MEDIVATION TECHNOLOGIES, INC., priority 2012, published 2015).
pIC50: −log10 of the molar value.

Columns and labels:
Format in all cases: cell-based
[1] = molecular target: T1, Human adrenergic α1B receptor (Homo sapiens, UniProt P35368); experiment: β-Arrestin GPCR functional assay, adrenergic α1B (Protocol B); details: for pIC50: β-arrestin, antagonist vs nor-epinephrine EC80
T1 sequence (P35368 1-520): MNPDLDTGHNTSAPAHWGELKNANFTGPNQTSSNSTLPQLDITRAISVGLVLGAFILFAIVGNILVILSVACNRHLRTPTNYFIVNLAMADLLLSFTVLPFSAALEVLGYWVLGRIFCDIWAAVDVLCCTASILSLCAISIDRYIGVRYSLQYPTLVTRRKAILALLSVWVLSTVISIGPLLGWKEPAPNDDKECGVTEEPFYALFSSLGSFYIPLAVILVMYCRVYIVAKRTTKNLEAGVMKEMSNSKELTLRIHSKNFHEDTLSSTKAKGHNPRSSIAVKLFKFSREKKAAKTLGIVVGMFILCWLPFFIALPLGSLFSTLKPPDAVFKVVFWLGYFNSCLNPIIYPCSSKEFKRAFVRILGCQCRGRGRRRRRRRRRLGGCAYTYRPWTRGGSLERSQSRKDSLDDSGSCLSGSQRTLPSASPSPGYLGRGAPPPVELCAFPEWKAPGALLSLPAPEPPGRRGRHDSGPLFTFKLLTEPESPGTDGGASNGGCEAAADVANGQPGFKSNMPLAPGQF
Protocol: To evaluate the activity of compounds in β-Arrestin GPCR functional assays, recombinant CHO cell line (DiscoveRX), over expressed with human adrenergic α1B receptor were used. The experiment was done with a kit of DiscoveRX as per recommended protocol of the supplier. Cells were harvested from culture flask using cell dissociation solution (CDS) and plated at a density of 12,000 cells/well in CP reagent (supplied with the kit) in a half area 96-well white polystyrene plate. After 24 h incubation at 37° C., compounds at various concentrations in 1% (final) DMSO were charged to the cells for 30 min at 37° C. Active nor-epinephrine (-NE) at its EC80 concentrations (50 nM) were then added to the cells and incubated for another 90 min at 37° C. Detection mix was prepared by mixing Path Hunter cell assay buffer, Emerald II solution and Galactone star solution in a ratio of 19:5:1 and incubated with the cells for 60 min at RT in the dark. The reading was taken in Envision at luminescence mode. Biochemical assay results are presented as the percent Inhibition in Table B2a, or IC50 values in Table B2b.

[2] = molecular target: T2, Human adrenergic α2A receptor (Homo sapiens, UniProt P08913); experiment: β-Arrestin GPCR functional assay, adrenergic α2A (Protocol B); details: for pIC50: β-arrestin, antagonist vs nor-epinephrine EC80; for Percentage inhibition, Adrenergic α2A: nor-epinephrine at EC80 (270 nM)
T2 sequence (P08913 1-465): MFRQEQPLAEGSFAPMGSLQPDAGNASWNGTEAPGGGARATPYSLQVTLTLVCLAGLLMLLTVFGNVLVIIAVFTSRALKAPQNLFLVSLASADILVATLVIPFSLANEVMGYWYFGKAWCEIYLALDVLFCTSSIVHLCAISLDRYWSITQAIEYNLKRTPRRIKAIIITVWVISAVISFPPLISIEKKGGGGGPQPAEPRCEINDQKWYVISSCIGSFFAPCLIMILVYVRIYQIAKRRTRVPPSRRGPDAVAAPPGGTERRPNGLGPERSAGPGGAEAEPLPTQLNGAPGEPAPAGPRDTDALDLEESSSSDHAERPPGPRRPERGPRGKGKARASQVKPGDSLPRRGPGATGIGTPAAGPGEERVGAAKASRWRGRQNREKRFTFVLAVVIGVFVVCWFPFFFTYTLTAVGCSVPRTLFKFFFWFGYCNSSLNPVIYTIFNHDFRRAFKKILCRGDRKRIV
Outline: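 PathHunter CHO cells overexpressing human α2A receptor were preincubated with compounds (1% DMSO final) for 30 min at 37 °C, then stimulated 90 min with norepinephrine at EC80 (270 nM). β-Arrestin recruitment read by chemiluminescence after 60 min detection; reported as % inhibition or IC50.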

[3] = molecular target: T3, Human adrenergic α2B receptor (Homo sapiens, UniProt P18089); experiment: β-Arrestin GPCR functional assay, adrenergic α2B (Protocol B); details: for pIC50: β-arrestin, antagonist vs nor-epinephrine EC80, read-out: IC50 Adrenergic α2B
T3 sequence (P18089 1-450): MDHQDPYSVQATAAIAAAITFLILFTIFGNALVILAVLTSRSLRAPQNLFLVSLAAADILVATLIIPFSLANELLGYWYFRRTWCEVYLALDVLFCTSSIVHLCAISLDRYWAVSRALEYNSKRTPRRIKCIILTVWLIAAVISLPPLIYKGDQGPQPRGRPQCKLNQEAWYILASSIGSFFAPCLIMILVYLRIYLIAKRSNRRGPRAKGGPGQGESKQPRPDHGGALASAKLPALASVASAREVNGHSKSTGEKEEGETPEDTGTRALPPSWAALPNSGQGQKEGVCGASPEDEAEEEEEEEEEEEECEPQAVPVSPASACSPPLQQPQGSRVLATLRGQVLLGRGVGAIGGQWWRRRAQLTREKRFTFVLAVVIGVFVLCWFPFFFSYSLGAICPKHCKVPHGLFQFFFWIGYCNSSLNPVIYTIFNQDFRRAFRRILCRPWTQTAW
Outline: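 CHO cells overexpressing human α2B (PathHunter β-arrestin), 12,000 per well, 24 h at 37° C; compounds in 1% DMSO 30 min, then 50 nM norepinephrine (EC80) 90 min at 37° C.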

[4] = 0.1 μM compound, nor-epinephrine at EC80 (50 nM)
[5] = 30 nM compound, nor-epinephrine at EC80 (50 nM)

| pIC50 [1] | pIC50 [2] | pIC50 [3] | Structure (SMILES) | further results |
| --- | --- | --- | --- | --- |
| 6.17 | 5.45 | 6.92 | CCOC(Cn1c2c(c3cc(C)ccc31)CN(C)CC2)c1ccncc1 (single isomer, unassigned) [43a] |  |
| 6.18 | 5.22 | 6.79 | Cc1ccc2c(c1)c1c(n2CC(OC(=O)N2CCCC2)c2ccncc2)CCN(C)C1 (single isomer, unassigned) [4b] |  |
| 5.94 | 5.28 | 7.39 | CCCOC(Cn1c2c(c3cc(C)ccc31)CN(C)CC2)c1ccncc1 (single isomer, unassigned) [42b] |  |
| 7.60 | 6.37 | 7.85 | Cc1ccc2c(c1)c1c(n2CC(O)c2ccncc2F)CCN2CCCC12 (single isomer, unassigned) [14b] | Percentage inhibition, Adrenergic α1B [1, 4]: 76%; Percentage inhibition, Adrenergic α1B ([1]; 0.3 μM compound, nor-epinephrine at EC80 (50 nM)): 86%; Percentage inhibition, Adrenergic α2A ([2]; 0.1 μM compound): 13%; Percentage inhibition, Adrenergic α2A ([2]; 0.3 μM compound): 44%; Percentage inhibition, Adrenergic α2B ([3]; 10 nM compound, nor-epinephrine at EC80 (50 nM)): 11%; Percentage inhibition, Adrenergic α2B [3, 5]: 93%; Percentage inhibition, Adrenergic α2B [3, 4]: 97% |
| 6.14 | 5.68 | 7.77 | Cc1cc(F)cc2c3c(n(CC(C)(O)c4cccnc4)c12)CCN1CCCC31 (single isomer, unassigned) [75a] |  |
| 6.55 | 5.75 | 7.73 | Cc1cc(Cl)c2c(c1)c1c(n2CC(C)(O)c2ccncc2)CCN2CCCC12 (single isomer, unassigned) [91b] |  |
| 6.03 | 5.88 | 7.69 | Cc1ccc2c(c1)c1c(n2CC(OCC2CCC2)c2ccncc2)CCN2CCCC12 (single isomer, unassigned) [138b] |  |
| 6.92 | 5.75 | 7.62 | Cc1ccc2c(c1)c1c(n2CC(C)(O)c2ccc(F)nc2)CCN2CCCC12 (single isomer, unassigned) [6a] |  |
| 6.16 | 5.29 | 6.75 | Cc1cc(C)c2c(c1)c1c(n2CC(C)(O)c2cccnc2)CCN2CCCC12 (single isomer, unassigned) [44a] |  |
| 7.00 |  | 6.91 | Cc1ccc2c(c1)c1c(n2CC(O)c2ccncc2F)CCN2CCCC12 (single isomer, unassigned) [14a] | Percentage inhibition, Adrenergic α1B [1, 4]: 49%; inhibition at 0.3 µM ([1]; 0.3 μM compound, nor-epinephrine at EC80 (50 nM), read-out: Percentage inhibition, Adrenergic α1B): 76%; Percentage inhibition, Adrenergic α2A ([2]; 0.1 μM compound): −1%; Percentage inhibition, Adrenergic α2A ([2]; 0.3 μM compound): −2%; inhibition at 0.01 µM ([3]; 10 nM compound, nor-epinephrine at EC80 (50 nM), read-out: Percentage inhibition, Adrenergic α2B): 13%; Percentage inhibition, Adrenergic α2B [3, 5]: 9%; Percentage inhibition, Adrenergic α2B [3, 4]: 41% |
| 6.20 | 5.48 | 6.74 | CCCOC(Cn1c2c(c3cc(C)ccc31)CN(C)CC2)c1ccncc1 (single isomer, unassigned) [42a] |  |
| 5.96 | 5.13 | 7.04 | CCOC(Cn1c2c(c3cc(C)ccc31)CN(C)CC2)c1ccncc1 (single isomer, unassigned) [43b] |  |
| 7.14 | 6.38 | 7.76 | Cc1ccc2c(c1)c1c(n2CC(OCC2CCC2)c2ccncc2)CCN2CCCC12 (single isomer, unassigned) [138a] |  |
| 7.35 | 5.95 | 7.70 | Cc1ccc2c(c1)c1c(n2CC(C)(O)c2ccnc(F)c2)CCN2CCCC12 (single isomer, unassigned) [48a] |  |
| 6.99 | 6.53 | 8.03 | OC(Cn1c2c(c3cc(Cl)cc(F)c31)C1CCCN1CC2)c1ccncc1 (single isomer, unassigned) [135b] |  |
| 6.91 | 6.31 | 7.74 | Cc1ccc2c(c1)c1c(n2CC(C)(O)c2ccnc(F)c2)CCN2CCCC12 (single isomer, unassigned) [48b] |  |
| 7.04 | 5.90 | 7.80 | Cc1cc(F)c2c(c1)c1c(n2CC(C)(O)c2ccncc2)CCN2CCCC12 (single isomer, unassigned) [81a] |  |
| 6.65 | 6.00 | 7.31 | CC(O)(Cn1c2c(c3cc(Cl)cc(F)c31)C1CCCN1CC2)c1ccncc1 (single isomer, unassigned) [52b] |  |
| 6.11 | 4.95 | 7.18 | CC(O)(Cn1c2c(c3cc(F)ccc31)C1CCCN1CC2)c1ccncc1 (single isomer, unassigned) [31b] |  |

| Structure (SMILES) | pIC50 [1] | pIC50 [2] | pIC50 [3] | further results |
| --- | --- | --- | --- | --- |
| Cc1ccc2c(c1)c1c(n2C[C@@H](OC2CCCC2)c2ccncc2)CCN2CCC[C@H]12 [compound 82, (11cR)-7-[(25)-2-(cyclopentoxy)-2-(4-pyridyl)ethyl]-10-methyl-1,2,3,5,6,11c-hexahydroindolizino[7,8-b]indole] | 6.42 | 6.17 | 7.60 |  |
